Measured values reported in BindingDB's records for doi:10.1021/jm00001a011 (University of Auckland, 1995).

assay: Inhibitory concentration of the against pp60v-src tyrosine kinase obtained from v-src baculovirus-infected insect cells

Structure (SMILES) | IC50 [µM]
Cn1c(SSc2c(C(=O)NCC(=O)O)c3ccccc3n2C)c(C(=O)NCC(=O)O)c2ccccc21 [({2-[3-(Carboxymethyl-carbamoyl)-1-methyl-1H-indol-2-yldisulfanyl]-1-methyl-1H-indole-3-carbonyl}-amino)-acetic acid] | 1
O=C(Nc1ccccc1)c1c(SSc2[nH]c3ccccc3c2C(=O)Nc2ccccc2)[nH]c2ccccc12 [3N-phenyl-2-(3-phenylcarbamoyl-1H-2-indolyldisulfanyl)-1H-3-indolecarboxamide] | 7.6
O=C(O)CCc1c(SSc2[nH]c3ccccc3c2CCC(=O)O)[nH]c2ccccc12 [2,2 -Dithiobis(1H-indole-3-propanoic acid)] | 5.1
Cc1c(SSc2c(C)c3ccccc3n2C)n(C)c2ccccc12 [di(1,3-dimethyl-1H-2-indolyl) disulfide] | > 50
Cn1c(SSc2c(C(=O)Nc3ccc(C(=O)O)cc3)c3ccccc3n2C)c(C(=O)Nc2ccc(C(=O)O)cc2)c2ccccc21 [4-{2-[3-(4-carboxyphenylcarbamoyl)-1-methyl-1H-2-indolyldisulfanyl]-1-methyl-1H-3-indolylcarboxamido}benzoic acid H2O] | 4.3
Cn1c(SSc2c(C(=O)c3ccc(C(=O)O)cc3)c3ccccc3n2C)c(C(=O)c2ccc(C(=O)O)cc2)c2ccccc21 [4-{2-[3-(4-carboxybenzoyl)-1-methyl-1H-2-indolyldisulfanyl]-1-methyl-1H-3-indolylcarbonyl}benzoic acid2 H2O] | 4
Cn1c(SSc2c(C(=O)NCc3ccccc3)c3ccccc3n2C)c(C(=O)NCc2ccccc2)c2ccccc21 [3N-benzyl-2-(3-benzylcarbamoyl-1-methyl-1H-2-indolyldisulfanyl)-1-methyl-1H-3-indolecarboxamide] | 8
Cn1c(SSc2c(C(=O)Nc3cccnc3)c3ccccc3n2C)c(C(=O)Nc2cccnc2)c2ccccc21 [3N-(3-pyridyl)-1-methyl-2-[1-methyl-3-(3-pyridylcarbamoyl)-1H-2-indolyldisulfanyl]-1H-3-indolecarboxamide] | > 50
Cn1c(SSc2c(C(N)=O)c3ccccc3n2C)c(C(N)=O)c2ccccc21 [2-(3-carbamoyl-1-methyl-1H-2-indolyldisulfanyl)-1-methyl-1H-3-indolecarboxamide0.5 H2O] | 0.8
CN(C)C(=O)c1c(SSc2c(C(=O)N(C)C)c3ccccc3n2C)n(C)c2ccccc12 [1,3N,3N-trimethyl-2-(3-dimethylcarbamoyl-1-methyl-1H-2-indolyldisulfanyl)-1H-3-indolecarboxamide0.5 H2O] | 0.5
Cn1c(SSc2c(C(=O)NCC(O)CO)c3ccccc3n2C)c(C(=O)NCC(O)CO)c2ccccc21 (configuration not stated) [3N-(2,3-dihydroxypropyl)-2-[3-(2,3-dihydroxypropylcarbamoyl)-1-methyl-1H-2-indolyldisulfanyl]-1-methyl-1H-3-indolecarboxamide] | 22.5
O=C(NCc1ccccc1)c1c(SSc2[nH]c3ccccc3c2C(=O)NCc2ccccc2)[nH]c2ccccc12 [3N-benzyl-2-(3-benzylcarbamoyl-1H-2-indolyldisulfanyl)-1H-3-indolecarboxamide] | 16.3
CCn1c(SSc2c(C(=O)Nc3ccccc3)c3ccccc3n2CC)c(C(=O)Nc2ccccc2)c2ccccc21 [3N-phenyl-1-ethyl-2-(1-ethyl-3-phenylcarbamoyl-1H-2-indolyldisulfanyl)-1H-3-indolecarboxamide] | > 100
COC(=O)c1ccc(NC(=O)c2c(SSc3c(C(=O)Nc4ccc(C(=O)OC)cc4)c4ccccc4n3C)n(C)c3ccccc23)cc1 [methyl 4-{1-methyl-2-[1-methyl-3-(4-methyloxycarbonylphenylcarbamoyl)-1H-2-indolyldisulfanyl]-1H-3-indolylcarboxamido}benzoate H2O] | 4.2
COC(=O)c1ccccc1NC(=O)c1c(SSc2c(C(=O)Nc3ccccc3C(=O)OC)c3ccccc3n2C)n(C)c2ccccc12 [methyl 2-{1-methyl-2-[1-methyl-3-(2-methyloxycarbonylphenylcarbamoyl)-1H-2-indolyldisulfanyl]-1H-3-indolylcarboxamido}benzoate0.5 H2O] | 15.6
Cn1c(SSc2c(C(=O)Nc3cccs3)c3ccccc3n2C)c(C(=O)Nc2cccs2)c2ccccc21 [3N-(2-thienyl)-1-methyl-2-[1-methyl-3-(2-thienylcarbamoyl)-1H-2-indolyldisulfanyl]-1H-3-indolecarboxamide] | > 50
Cn1c(SSc2c(C(=O)Nc3ccccc3C(=O)O)c3ccccc3n2C)c(C(=O)Nc2ccccc2C(=O)O)c2ccccc21 [2-{2-[3-(2-carboxyphenylcarbamoyl)-1-methyl-1H-2-indolyldisulfanyl]-1-methyl-1H-3-indolylcarboxamido}benzoic acid2.0 H2O] | 3.5
COC(=O)c1ccc(CNC(=O)c2c(SSc3c(C(=O)NCc4ccc(C(=O)OC)cc4)c4ccccc4n3C)n(C)c3ccccc23)cc1 [methyl 4-{1-methyl-2-[1-methyl-3-(4-methyloxycarbonylbenzylcarbamoyl)-1H-2-indolyldisulfanyl]-1H-3-indolylcarboxamidomethyl}benzoate0.5 H2O] | 2.5
c1ccc(-c2c(SSc3[nH]c4ccccc4c3-c3ccccc3)[nH]c3ccccc23)cc1 [di(3-phenyl-1H-2-indolyl) disulfide] | > 100
COC(=O)c1ccc(C(=O)c2c(SSc3c(C(=O)c4ccc(C(=O)OC)cc4)c4ccccc4n3C)n(C)c3ccccc23)cc1 [methyl 4-{1-methyl-2-[1-methyl-3-(4-methyloxycarbonylbenzoyl)-1H-2-indolyldisulfanyl]-1H-3-indolylcarbonyl}benzoate] | 7.1
Cn1c(SSc2c(C(=O)Nc3cccc(C(=O)O)c3)c3ccccc3n2C)c(C(=O)Nc2cccc(C(=O)O)c2)c2ccccc21 [3-{2-[3-(3-carboxyphenylcarbamoyl)-1-methyl-1H-2-indolyldisulfanyl]-1-methyl-1H-3-indolylcarboxamido}benzoic acid0.5 H2O] | 5.3
COC(=O)c1cccc(NC(=O)c2c(SSc3c(C(=O)Nc4cccc(C(=O)OC)c4)c4ccccc4n3C)n(C)c3ccccc23)c1 [methyl 3-{1-methyl-2-[1-methyl-3-(3-methyloxycarbonylphenylcarbamoyl)-1H-2-indolyldisulfanyl]-1H-3-indolylcarboxamido}benzoate] | 5.4
